Holding throughout (experiment): Cysteine liganding, probe competition
What all share (format): binding

Assay [1] deals with T1, HUWE1 E3 ubiquitin-protein ligase HUWE1 (Homo sapiens, UniProt Q7Z6Z7).
T1 construct: Cells were resuspended in cold PBS on ice and sonicated with a probe sonicator to achieve lysis; endogenous in cells
The protocol: (§1) Cells were resuspended in cold PBS on ice and sonicated with a probe sonicator to achieve lysis. 200 μL of lysate containing 5 mg/ml proteome was treated with 2 μL of 100× compound stock in a 2-mL deep-well plate. The treated lysate was subsequently incubate at 25° C. for 1 hr with shaking at 600 rpm. The treated lysate was further incubated with 2 μL of 10 mM desthiobiotin iodoacetamide probe at 25° C. for 1 hr with shaking at 600 rpm. Next, the lysate was further treat with 20 μL of solution of PBS containing 11 mM MgSO4 and 2.5% Turbonuclease stock and incubated at 25° C. for 20 minutes with shaking at 600 rpm. 1.7 mL ice-cold acetone was added to each well and incubated at −20° C. for 2 hr, followed by max speed (4200 rpm) spin for 45 min. Acetone was then decanted and the plates were blotted to remove acetone. The plates were then dried in open air for 20 minutes. After drying, the plates were then covered with foil seal and stored at −80° C. overnight.
(§2) The next day, samples were re-suspended in 90 μL of solution of 9M urea, 50 mM ammonium bicarbonate and 10 mM DTT by incubating at 65C for 20 min with shaking at 1500 rpm. Next, samples were cooled to 37° C. and then 10 μL of 500 mM iodoacetamide solution (92.48 mg/ml) was added. The samples were then incubated at 37° C. for 30 min with shaking at 600 rpm.
(§3) ZEBA desalting plates were equilibrated 4 times using 250 μL of 2M urea, 50 mM ammonium bicarbonate solution followed by centrifugation at 1500 rpm for 2 minutes. After equilibration was complete, samples were applied to ZEBA desalting plate and spin at 1500 rpm for 2 min on top of 1 mL 96-well deep-well collection plate to buffer exchange samples. 4 μL of solution containing 25 mM CaCl2 and 0.25 mg/mL trypsin was added to the plate and the plate was then incubated at 37° C. for 2 hrs with shaking at 600 rpm. 300 μL of solution containing 5% high-capacity streptavidin agarose slurry in 25 mM Tris-HCl pH 7.5, 150 mM NaCl, and 0.1% NP-40 then added. The plate was incubated at 25° C. for 2 hrs with shaking at 600 rpm. Samples were transferred to 25 μm filter plate and spin at 1000 rpm for 2 min. Samples were then washed 3 times with 0.75 mL of wash buffer (25 mM Tris-HCl pH 7.5, 150 mM NaCl, and 0.1% NP-40) followed by washing 3 times with 0.75 mL PBS, and then 4 times with 0.75 mL water. After the washing step, samples were eluted into polypropylene 96-well plate by addition of 250 µL of 50% MeCN/water, 0.1% formic acid and allowed to gravity drip for 10 min, followed by centrifugation at 1000 rpm for 2 min. Speedvac was used to dry the plates at about 45° C. for […]. Then the plates were covered with foil seal and stored at −20° C.
(§4) Samples were resuspended by addition of 20 μl of 12.5% ACN, 0.1% formic acid solution, covered with foil seal, and incubated at 42° C. for 10 minutes with shaking at 600 rpm. Then add 30 μL of 0.1% formic acid solution was added and the plate was covered and incubated at 42° C. for 10 minutes with shaking at 600 rpm. Seal plate was then sealed with a 96-well silicon mat for analysis.

Assay [2] concerns the target T2, HERC1 Probable E3 ubiquitin-protein ligase HERC1 (Homo sapiens, UniProt Q15751).
T2 construct: Cells were resuspended in cold PBS on ice and sonicated with a probe sonicator to achieve lysis; endogenous in cells
The protocol:
as §1, §2, §3, §4

Assay [3] deals with T3, HECTD1 E3 ubiquitin-protein ligase HECTD1 (Homo sapiens, UniProt Q9ULT8).
T3 construct: Cells were resuspended in cold PBS on ice and sonicated with a probe sonicator to achieve lysis; endogenous in cells
The method, then: as §1, §2, §3, §4

Assay [4] addresses T4, HADHB Trifunctional enzyme subunit beta, mitochondrial (Homo sapiens, UniProt P55084).
T4 construct: Cells were resuspended in cold PBS on ice and sonicated with a probe sonicator to achieve lysis; endogenous in cells
The method, then: as §1, §2, §3, §4

Assay [5] has as its target T5, L2HGDH L-2-hydroxyglutarate dehydrogenase, mitochondrial (Homo sapiens, UniProt Q9H9P8).
T5 construct: Cells were resuspended in cold PBS on ice and sonicated with a probe sonicator to achieve lysis; endogenous in cells
T5 sequence (Q9H9P8 52-463): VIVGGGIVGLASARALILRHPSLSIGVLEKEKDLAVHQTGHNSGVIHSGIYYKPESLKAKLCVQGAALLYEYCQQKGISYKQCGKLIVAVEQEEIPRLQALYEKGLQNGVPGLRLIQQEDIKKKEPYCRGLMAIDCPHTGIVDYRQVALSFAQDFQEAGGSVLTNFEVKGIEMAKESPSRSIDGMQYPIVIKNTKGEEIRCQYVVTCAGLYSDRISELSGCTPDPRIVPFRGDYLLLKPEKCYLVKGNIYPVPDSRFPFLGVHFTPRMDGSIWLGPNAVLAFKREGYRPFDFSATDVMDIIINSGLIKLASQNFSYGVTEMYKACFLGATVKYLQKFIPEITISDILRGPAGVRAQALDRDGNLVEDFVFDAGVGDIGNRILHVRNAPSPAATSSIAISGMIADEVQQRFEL
The method, then:
as §1, §2, §3, §4

The target in assay [6] is T6, AGPAT6 Glycerol-3-phosphate acyltransferase 4 (Homo sapiens, UniProt Q86UL3).
T6 construct: Cells were resuspended in cold PBS on ice and sonicated with a probe sonicator to achieve lysis; endogenous in cells
T6 sequence (Q86UL3 38-456): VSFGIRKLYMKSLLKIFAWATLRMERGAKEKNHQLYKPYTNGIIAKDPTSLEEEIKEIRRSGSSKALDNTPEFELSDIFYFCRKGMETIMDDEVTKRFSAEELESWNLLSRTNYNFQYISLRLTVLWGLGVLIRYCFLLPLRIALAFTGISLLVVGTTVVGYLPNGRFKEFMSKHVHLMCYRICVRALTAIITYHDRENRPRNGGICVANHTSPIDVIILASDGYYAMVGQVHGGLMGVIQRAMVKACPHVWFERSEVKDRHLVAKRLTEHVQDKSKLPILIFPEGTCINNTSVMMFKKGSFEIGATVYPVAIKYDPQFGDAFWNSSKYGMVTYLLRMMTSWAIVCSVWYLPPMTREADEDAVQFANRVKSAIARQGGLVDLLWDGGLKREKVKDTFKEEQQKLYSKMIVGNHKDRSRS
To be noted: for Liganded: AGPAT6 Res# 325, uniprot Q86UL3. The protocol:
as §1, §2, §3, §4

For assay [7], the target named is T7, RPS6KA3 Ribosomal protein S6 kinase alpha-3 (Homo sapiens, UniProt P51812).
T7 construct: Cells were resuspended in cold PBS on ice and sonicated with a probe sonicator to achieve lysis; endogenous in cells
The protocol:
as §1, §2, §3, §4

T1 sequence (Q7Z6Z7 whole entry): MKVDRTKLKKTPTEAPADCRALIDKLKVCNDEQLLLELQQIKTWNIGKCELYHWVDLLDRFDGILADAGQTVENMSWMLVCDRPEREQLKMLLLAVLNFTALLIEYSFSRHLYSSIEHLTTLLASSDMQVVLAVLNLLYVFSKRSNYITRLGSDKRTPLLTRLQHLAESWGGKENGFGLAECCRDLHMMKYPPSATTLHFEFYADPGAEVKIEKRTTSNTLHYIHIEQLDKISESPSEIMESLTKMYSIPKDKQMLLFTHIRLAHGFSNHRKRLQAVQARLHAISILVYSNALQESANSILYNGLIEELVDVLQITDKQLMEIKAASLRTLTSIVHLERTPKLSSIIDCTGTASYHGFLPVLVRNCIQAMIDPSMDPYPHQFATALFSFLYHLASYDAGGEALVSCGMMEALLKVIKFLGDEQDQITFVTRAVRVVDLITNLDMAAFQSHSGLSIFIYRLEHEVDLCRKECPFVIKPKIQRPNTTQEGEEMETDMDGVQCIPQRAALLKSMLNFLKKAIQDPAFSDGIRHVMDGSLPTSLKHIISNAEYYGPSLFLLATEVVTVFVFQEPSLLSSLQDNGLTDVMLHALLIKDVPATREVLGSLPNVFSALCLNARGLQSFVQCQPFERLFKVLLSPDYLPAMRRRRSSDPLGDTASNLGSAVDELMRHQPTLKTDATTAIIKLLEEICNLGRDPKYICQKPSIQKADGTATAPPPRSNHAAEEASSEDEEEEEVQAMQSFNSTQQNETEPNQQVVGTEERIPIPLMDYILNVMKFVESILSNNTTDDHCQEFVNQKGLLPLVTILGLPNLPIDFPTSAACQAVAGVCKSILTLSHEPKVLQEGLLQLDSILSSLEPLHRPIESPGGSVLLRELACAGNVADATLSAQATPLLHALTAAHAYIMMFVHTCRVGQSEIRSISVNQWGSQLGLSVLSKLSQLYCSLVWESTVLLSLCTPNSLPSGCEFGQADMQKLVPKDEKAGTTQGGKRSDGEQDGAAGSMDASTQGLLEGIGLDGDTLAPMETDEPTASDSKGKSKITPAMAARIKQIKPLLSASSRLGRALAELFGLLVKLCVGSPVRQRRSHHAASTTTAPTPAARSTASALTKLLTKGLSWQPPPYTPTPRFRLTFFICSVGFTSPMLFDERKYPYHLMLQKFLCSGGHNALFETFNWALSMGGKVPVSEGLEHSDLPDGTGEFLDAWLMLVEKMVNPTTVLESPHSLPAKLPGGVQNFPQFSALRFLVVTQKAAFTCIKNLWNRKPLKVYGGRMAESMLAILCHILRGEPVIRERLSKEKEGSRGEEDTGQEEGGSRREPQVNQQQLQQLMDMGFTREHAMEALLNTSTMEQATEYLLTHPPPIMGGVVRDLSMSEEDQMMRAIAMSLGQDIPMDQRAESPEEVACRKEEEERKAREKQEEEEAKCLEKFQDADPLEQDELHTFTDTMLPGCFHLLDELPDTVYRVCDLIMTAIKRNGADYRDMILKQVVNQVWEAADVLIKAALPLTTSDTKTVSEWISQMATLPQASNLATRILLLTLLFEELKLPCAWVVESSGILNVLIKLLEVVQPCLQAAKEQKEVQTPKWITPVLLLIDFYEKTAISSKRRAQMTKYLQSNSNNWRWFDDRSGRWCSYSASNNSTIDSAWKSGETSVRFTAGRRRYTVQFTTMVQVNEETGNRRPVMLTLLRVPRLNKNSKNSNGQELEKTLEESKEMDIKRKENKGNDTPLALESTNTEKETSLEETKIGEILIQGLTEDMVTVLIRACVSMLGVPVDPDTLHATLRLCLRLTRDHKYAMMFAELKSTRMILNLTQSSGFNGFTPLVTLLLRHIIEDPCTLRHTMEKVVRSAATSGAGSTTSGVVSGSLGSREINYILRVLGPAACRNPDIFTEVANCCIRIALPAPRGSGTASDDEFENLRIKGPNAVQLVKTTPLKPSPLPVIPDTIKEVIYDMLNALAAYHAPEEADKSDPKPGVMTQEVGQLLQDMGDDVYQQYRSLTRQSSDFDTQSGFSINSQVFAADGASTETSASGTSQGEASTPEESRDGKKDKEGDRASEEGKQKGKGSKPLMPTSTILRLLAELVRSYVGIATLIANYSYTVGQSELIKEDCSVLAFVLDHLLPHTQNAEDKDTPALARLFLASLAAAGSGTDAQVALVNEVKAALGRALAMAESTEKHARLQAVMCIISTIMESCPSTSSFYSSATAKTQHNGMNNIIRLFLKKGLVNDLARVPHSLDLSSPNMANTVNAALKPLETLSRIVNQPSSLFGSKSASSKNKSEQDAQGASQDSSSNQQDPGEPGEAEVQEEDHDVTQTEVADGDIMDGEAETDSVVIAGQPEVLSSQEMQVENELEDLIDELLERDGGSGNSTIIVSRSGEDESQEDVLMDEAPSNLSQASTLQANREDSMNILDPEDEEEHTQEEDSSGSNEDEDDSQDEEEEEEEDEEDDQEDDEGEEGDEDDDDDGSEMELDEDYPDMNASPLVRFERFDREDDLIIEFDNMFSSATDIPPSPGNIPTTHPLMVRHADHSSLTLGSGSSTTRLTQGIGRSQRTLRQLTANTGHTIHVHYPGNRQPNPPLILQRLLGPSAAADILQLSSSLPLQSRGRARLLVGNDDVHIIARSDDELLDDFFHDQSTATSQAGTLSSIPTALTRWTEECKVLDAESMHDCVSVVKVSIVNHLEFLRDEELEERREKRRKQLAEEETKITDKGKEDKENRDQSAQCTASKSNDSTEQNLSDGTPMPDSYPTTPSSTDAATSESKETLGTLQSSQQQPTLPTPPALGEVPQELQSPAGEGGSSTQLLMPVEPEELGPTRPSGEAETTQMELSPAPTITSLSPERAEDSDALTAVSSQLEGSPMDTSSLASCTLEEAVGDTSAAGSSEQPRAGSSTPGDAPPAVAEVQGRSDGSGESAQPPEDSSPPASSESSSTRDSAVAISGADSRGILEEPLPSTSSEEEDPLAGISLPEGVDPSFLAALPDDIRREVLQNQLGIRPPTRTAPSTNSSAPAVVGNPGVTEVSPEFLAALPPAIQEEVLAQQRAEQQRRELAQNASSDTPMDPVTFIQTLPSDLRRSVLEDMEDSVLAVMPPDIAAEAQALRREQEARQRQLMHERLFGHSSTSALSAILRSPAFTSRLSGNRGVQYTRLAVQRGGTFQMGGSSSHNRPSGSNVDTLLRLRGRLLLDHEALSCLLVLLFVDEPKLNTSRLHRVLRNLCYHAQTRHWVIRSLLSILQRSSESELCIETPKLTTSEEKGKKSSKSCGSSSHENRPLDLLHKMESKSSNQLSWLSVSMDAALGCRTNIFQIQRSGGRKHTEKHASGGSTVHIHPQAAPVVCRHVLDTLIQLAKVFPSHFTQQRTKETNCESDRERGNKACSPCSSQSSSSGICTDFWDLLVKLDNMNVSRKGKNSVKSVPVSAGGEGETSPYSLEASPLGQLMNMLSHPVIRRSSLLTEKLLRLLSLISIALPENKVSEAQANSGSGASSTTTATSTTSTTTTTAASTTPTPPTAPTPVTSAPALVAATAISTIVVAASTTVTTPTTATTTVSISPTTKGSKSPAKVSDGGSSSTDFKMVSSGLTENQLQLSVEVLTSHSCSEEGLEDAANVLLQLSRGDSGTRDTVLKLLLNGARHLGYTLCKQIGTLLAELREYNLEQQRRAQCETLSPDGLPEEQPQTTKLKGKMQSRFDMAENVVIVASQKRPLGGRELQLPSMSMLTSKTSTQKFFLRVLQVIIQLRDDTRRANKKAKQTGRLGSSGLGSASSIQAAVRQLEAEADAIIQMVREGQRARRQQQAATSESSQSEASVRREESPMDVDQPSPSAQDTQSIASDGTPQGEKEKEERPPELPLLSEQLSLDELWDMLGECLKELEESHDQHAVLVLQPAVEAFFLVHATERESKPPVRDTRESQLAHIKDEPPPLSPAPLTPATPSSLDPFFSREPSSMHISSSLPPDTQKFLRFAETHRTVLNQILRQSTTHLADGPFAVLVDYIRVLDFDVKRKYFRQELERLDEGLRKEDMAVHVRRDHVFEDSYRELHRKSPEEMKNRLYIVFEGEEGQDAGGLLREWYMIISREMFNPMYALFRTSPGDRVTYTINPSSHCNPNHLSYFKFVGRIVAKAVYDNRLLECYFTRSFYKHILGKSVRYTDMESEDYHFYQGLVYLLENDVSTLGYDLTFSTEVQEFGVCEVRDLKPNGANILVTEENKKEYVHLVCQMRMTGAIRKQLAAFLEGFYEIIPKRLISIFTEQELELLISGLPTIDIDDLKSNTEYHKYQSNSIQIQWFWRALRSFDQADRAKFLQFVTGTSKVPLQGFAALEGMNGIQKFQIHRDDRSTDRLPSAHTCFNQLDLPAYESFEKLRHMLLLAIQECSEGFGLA
T7 sequence (P51812 whole entry): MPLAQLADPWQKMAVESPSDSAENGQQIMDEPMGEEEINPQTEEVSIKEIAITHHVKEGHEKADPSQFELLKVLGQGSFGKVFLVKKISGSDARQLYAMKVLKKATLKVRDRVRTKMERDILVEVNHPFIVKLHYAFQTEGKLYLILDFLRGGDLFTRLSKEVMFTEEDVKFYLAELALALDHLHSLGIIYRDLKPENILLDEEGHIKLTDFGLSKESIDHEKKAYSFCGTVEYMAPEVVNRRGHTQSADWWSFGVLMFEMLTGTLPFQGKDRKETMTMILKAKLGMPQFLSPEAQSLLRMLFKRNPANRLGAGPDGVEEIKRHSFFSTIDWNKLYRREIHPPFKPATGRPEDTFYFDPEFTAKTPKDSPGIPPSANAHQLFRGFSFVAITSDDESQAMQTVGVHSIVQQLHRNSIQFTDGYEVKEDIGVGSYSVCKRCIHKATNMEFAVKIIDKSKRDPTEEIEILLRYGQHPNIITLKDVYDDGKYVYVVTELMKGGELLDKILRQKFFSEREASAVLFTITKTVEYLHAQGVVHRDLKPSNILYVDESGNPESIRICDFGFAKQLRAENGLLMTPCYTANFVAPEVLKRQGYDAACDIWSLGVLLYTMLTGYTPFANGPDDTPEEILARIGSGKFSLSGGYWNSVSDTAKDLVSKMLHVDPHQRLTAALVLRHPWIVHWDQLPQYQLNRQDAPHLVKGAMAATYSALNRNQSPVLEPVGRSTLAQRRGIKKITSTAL

Take `COc1ccc2c(c1)CCCN2C(=O)CCl` [KB02]: the Liganded entry is “YES” in assay [1] (HUWE1 Res# 2181, uniprot Q7Z6Z7); “YES” in assay [2] (HERC1 Res# 56, uniprot Q15751); “YES” in assay [2] (HERC1 Res# 1941, uniprot Q15751); “YES” in assay [3] (HECTD1 Res# 1855, uniprot Q9ULT8); “YES” in assay [4] (HADHB Res# 458, uniprot P55084); “YES” in assay [5] (L2HGDH Res# 187, uniprot Q9H9P8). Also, the Liganded result in assay [6] was “YES”; in assay [7] (RPS6KA3 Res# 229, uniprot P51812), “YES”.

With `O=C(CCl)Nc1cc(C(F)(F)F)cc(C(F)(F)F)c1` [KBO3], the 100 ave is listed as 9.7 in assay [1] (uniprot Q7Z6Z7); 0.1 in assay [3] (uniprot Q9ULT8); 15.245 in assay [4] (uniprot P55084); 26.9925 in assay [5] (uniprot Q9H9P8); 65.705 in assay [6] (uniprot Q86UL3); −4.767 in assay [7] (uniprot P51812). Also, the 100 Max was 9.7% in assay [1] (uniprot Q7Z6Z7, unit assumed); 1.2% in assay [3] (uniprot Q9ULT8, unit assumed); 26.24 in assay [4] (uniprot P55084); 39.03 in assay [5] (uniprot Q9H9P8); 66.91 in assay [6] (uniprot Q86UL3); 1.03 in assay [7] (uniprot P51812). The “500 Max” value in assay [2] (uniprot Q15751) is 68.4; in assay [3] (uniprot Q9ULT8, unit assumed), 72.6%; in assay [4] (uniprot P55084), 64.33; in assay [5] (uniprot Q9H9P8) it was 70.21; in assay [6] (uniprot Q86UL3) it was 85.19; in assay [7] (uniprot P51812, in % (unit assumed)), 30.61. In addition, the 500 ave in assay [2] (uniprot Q15751) amounted to 58.0; in assay [3] (uniprot Q9ULT8), 72.6; in assay [4] (uniprot P55084) it was 60.9; in assay [5] (uniprot Q9H9P8) it was 67.435; in assay [6] (uniprot Q86UL3), 85.19; in assay [7] (uniprot P51812) it was 30.61. Further, the Liganded entry in assay [6] is given as “YES”.

The record behind these values is patent publication US20200239530A1, “COMPOUNDS AND METHODS OF MODULATING PROTEIN DEGRADATION” (Vividion Therapeutics, Inc., priority 2017, published 2020).
